This test addresses SMARCA4 (Homo sapiens, UniProt P51532). Briefly: TR-FRET ligand displacement assay with recombinant bromodomain and BET ligand. It is filed as binding. Conditions: read-out: % inhibition at 10 μM.

The values below come from paper PMC6432638 (Science signaling, 2018).

Chain of SMARCA4 (P51532 1453-1564 limits assumed): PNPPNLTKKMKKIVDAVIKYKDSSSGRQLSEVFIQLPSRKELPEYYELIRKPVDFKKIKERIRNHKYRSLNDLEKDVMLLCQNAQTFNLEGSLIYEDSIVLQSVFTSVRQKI

With `O=C(/C=C/N1C[C@H]2C[C@@H]1CN2c1ccccn1)c1ccccc1O` [PFI-3], the inhibition at 10 µM was determined as 95%.
